Assay results taken from patent EP4786487A1, “PEPTIDE” (Peptidream Inc, priority 2023, dated 2025).
pIC50: −log10 of the molar value. Read-outs that look alike come from different tables or passages of the source. Starred links: 1 amine or outer side, 2 acyl side, 3 side chain; linkers in the order of their positions; H or OH if unused. Positions of bridges follow the written chain, without caps; N, C: chain ends. Non-standard residues stand in square brackets, D forms with d. Residues, ends and D or L forms follow the SMILES beside them. Groups on a side chain read outwards from the residue. *: point of attachment. Phe(4-(4-pyridyl)) = N[C@@H](Cc1ccc(-c2ccncc2)cc1)C(=O)O; Phe(3-OCH2COOH) = N[C@@H](Cc1cccc(OCC(=O)O)c1)C(=O)O; Piperidine(4-CH2CH2CONH2) = NC(=O)CCC1CCN(*)CC1; Phe(4-COOH) = N[C@@H](Cc1ccc(C(=O)O)cc1)C(=O)O; Piperazinyl(4-CH2COOH) = O=C(O)CN1CCN(*)CC1; Bip = N[C@@H](Cc1ccc(-c2ccccc2)cc1)C(=O)O; Gly(N(CH2)3COOH) = O=C(O)CCCNCC(=O)O; NMe3Pal = CN[C@@H](Cc1cccnc1)C(=O)O; X1 = CCCCCCC[C@H](N[*:1])C(=O)[*:2]; NMeCha = CN[C@@H](CC1CCCCC1)C(=O)O; NMeF = CN[C@@H](Cc1ccccc1)C(=O)O; NMeE = CN[C@@H](CCC(=O)O)C(=O)O; Cha = N[C@@H](CC1CCCCC1)C(=O)O; Carboxymethyl = O=C(O)C*; NMeA = CN[C@@H](C)C(=O)O; CO = O=C([*:1])[*:2]; Sar = CNCC(=O)O

Key:
Format in all cases: cell-based
Myostatin [1] = biological target: T1, Myostatin (Homo sapiens, UniProt O14793); assay: Reporter gene assay for myostatin signaling in HepG2 cell line, Evaluation Procedure (1), myostatin inhibition; conditions: read-out: IC50 (Luciferase) Myostatin HepG2
T1 construct: active myostatin (also called mature myostatin) is a homodimer consisting of two C-terminal growth factor domains; purchased R&D systems 788-G8/CF
T1 sequence (O14793 267-375): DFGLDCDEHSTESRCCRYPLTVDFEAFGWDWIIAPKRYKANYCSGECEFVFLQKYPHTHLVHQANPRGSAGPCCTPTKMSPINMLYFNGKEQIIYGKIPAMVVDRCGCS
How it was run: (§1)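 IC50 derived from One-Glo luciferase luminescence after 20–24 h at 37 °C. Peptides titrated 4-fold at 0.006–100 nmol/L against myostatin or 0.12–2000 nmol/L against GDF-11 in HepG2 cells carrying a transfected CAGA12-luciferase reporter, kept in 0.1% BSA EMEM.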

Myostatin [2] = assay: as above; conditions: GDF-11 IC50 versus Myostatin IC50
How it was run: as §1

GDF-11 = biological target: T2, GDF-11 (Homo sapiens, UniProt O95390); assay: Reporter gene assay for myostatin signaling in HepG2 cell line, Evaluation Procedure (1), GDF-11 inhibition; conditions: read-out: IC50 (Luciferase) GDF-11 HepG2
T2 construct: purchased R&D systems 1958-GD-G8/CF
T2 sequence (O95390 299-407): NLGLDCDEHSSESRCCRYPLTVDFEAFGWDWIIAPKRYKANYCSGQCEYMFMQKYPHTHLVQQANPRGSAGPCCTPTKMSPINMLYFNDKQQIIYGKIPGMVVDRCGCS
How it was run: as §1

SMILES	pIC50 (Myostatin [1]; Method A: Myostatin 10 ng/mL)	pIC50 (GDF-11; Method A: GDF-11 10 ng/mL)	pIC50 (Myostatin [1]; Method B: Myostatin 1 ng/mL)	pIC50 (GDF-11; Method B: GDF-11 1 ng/mL)	Selectivity (Myostatin [2]; Method A)	Selectivity (Myostatin [2]; Method B)
CCCCCCC[C@@H]1NC(=O)[C@H](Cc2ccccc2)NC(=O)[C@H](CCCNC(=N)N)NC(=O)[C@H](Cc2ccc(C(=O)O)cc2)NC(=O)[C@H](Cc2cccc(OCC(=O)O)c2)NC(=O)CN(C)C(=O)[C@H]([C@@H](C)CC)NC(=O)[C@H](Cc2ccccc2)N(C)C(=O)[C@H](Cc2ccc(O)cc2)NC(=O)[C@H](Cc2c[nH]c3ccccc23)NC(=O)[C@H](C)NC(=O)[C@H](C)NC(=O)CSC[C@H](C(=O)O)NC(=O)[C@H](Cc2ccccc2)N(C)C(=O)[C@H](C)N(C)C1=O [Myostatin_99_v212] ({CH2CO}-AAWY[NMeF]I[Sar][Phe(3-OCH2COOH)][Phe(4-COOH)]RF[X1][NMeA][NMeF][dC]-OH; thioether N-15)	8.48	6.56	–	–	84	–
CCCCCCC[C@@H]1NC(=O)[C@H](Cc2ccccc2)N(C)C(=O)[C@H](CCCNC(=N)N)NC(=O)[C@H](Cc2ccc(C(=O)O)cc2)NC(=O)[C@H](Cc2cccc(OCC(=O)O)c2)NC(=O)CN(C)C(=O)[C@H]([C@@H](C)CC)NC(=O)[C@H](Cc2ccccc2)N(C)C(=O)[C@H](Cc2ccc(O)cc2)NC(=O)[C@H](Cc2c[nH]c3ccccc23)NC(=O)[C@H](C)NC(=O)[C@H](C)NC(=O)CSC[C@H](C(=O)N2CCC(CCC(N)=O)CC2)NC(=O)[C@H](Cc2ccccc2)N(C)C(=O)[C@H](CCC(=O)O)N(C)C1=O [Myostatin_99_v316] ({CH2CO}-AAWY[NMeF]I[Sar][Phe(3-OCH2COOH)][Phe(4-COOH)]R[NMeF][X1][NMeE][NMeF][dC]-{Piperidine(4-CH2CH2CONH2)}; thioether N-15)	–	–	9.43	7.05	–	239.8
CCCCCCC[C@@H]1NC(=O)[C@H](Cc2ccccc2)N(C)C(=O)[C@H](CCCNC(=N)N)NC(=O)[C@H](Cc2ccc(C(=O)O)cc2)NC(=O)[C@H](Cc2cccc(OCC(=O)O)c2)NC(=O)CN(C)C(=O)[C@H]([C@@H](C)CC)NC(=O)[C@H](Cc2ccccc2)N(C)C(=O)[C@H](Cc2ccc(O)cc2)NC(=O)[C@H](Cc2c[nH]c3ccccc23)NC(=O)[C@H](C)NC(=O)[C@H](CC(N)=O)NC(=O)CSC[C@H](C(=O)O)NC(=O)[C@H](Cc2ccccc2)N(C)C(=O)[C@H](C)N(C)C1=O [Myostatin_99_v217] ({CH2CO}-NAWY[NMeF]I[Sar][Phe(3-OCH2COOH)][Phe(4-COOH)]R[NMeF][X1][NMeA][NMeF][dC]-OH; thioether N-15)	8.52	6.16	–	–	232	–
CC[C@H](C)[C@@H]1NC(=O)[C@H](Cc2ccccc2)N(C)C(=O)[C@H](Cc2ccc(O)cc2)NC(=O)[C@H](Cc2c[nH]c3ccccc23)NC(=O)[C@H](C)NC(=O)CN(CCCC(=O)O)C(=O)CSC[C@H](C(=O)O)NC(=O)[C@H](Cc2ccccc2)N(C)C(=O)[C@H](C)N(C)C(=O)[C@H](CC(C)C)NC(=O)[C@H](Cc2ccccc2)N(C)C(=O)[C@H](CCCNC(=N)N)NC(=O)[C@H](Cc2ccc(C(=O)O)cc2)NC(=O)[C@H](Cc2ccc(O)cc2)NC(=O)[C@H](C)N(C)C1=O [Myostatin_99_v178] ({CH2CO}-[Gly(N(CH2)3COOH)]AWY[NMeF]I[NMeA]Y[Phe(4-COOH)]R[NMeF]L[NMeA][NMeF][dC]-OH; thioether N-15)	7.92	6.60	–	–	21	–
CCCCCCC[C@@H]1NC(=O)[C@H](Cc2cccnc2)N(C)C(=O)[C@H](CCCNC(=N)N)NC(=O)[C@H](Cc2ccc(C(=O)O)cc2)NC(=O)[C@H](Cc2cccc(OCC(=O)O)c2)NC(=O)CN(C)C(=O)[C@H]([C@@H](C)CC)NC(=O)[C@H](Cc2ccccc2)N(C)C(=O)[C@H](Cc2ccc(O)cc2)NC(=O)[C@H](Cc2c[nH]c3ccccc23)NC(=O)[C@H](C)NC(=O)[C@H](C)NC(=O)CSC[C@H](C(=O)O)NC(=O)[C@H](Cc2ccccc2)N(C)C(=O)[C@H](C)N(C)C1=O [Myostatin_99_v211] ({CH2CO}-AAWY[NMeF]I[Sar][Phe(3-OCH2COOH)][Phe(4-COOH)]R[NMe3Pal][X1][NMeA][NMeF][dC]-OH; thioether N-15)	8.96	6.63	–	–	211	–
CCCCCCC[C@@H]1NC(=O)[C@H](Cc2ccccc2)N(C)C(=O)[C@H](CCCNC(=N)N)NC(=O)[C@H](Cc2ccc(C(=O)O)cc2)NC(=O)[C@H](Cc2cccc(OCC(=O)O)c2)NC(=O)CN(C)C(=O)[C@H]([C@@H](C)CC)NC(=O)[C@H](Cc2ccccc2)N(C)C(=O)[C@H](Cc2ccc(O)cc2)NC(=O)[C@H](Cc2c[nH]c3ccccc23)NC(=O)[C@H](C)NC(=O)[C@H](C)NC(=O)CSC[C@@H](C(=O)O)NC(=O)[C@H](Cc2ccccc2)N(C)C(=O)[C@H](C)N(C)C1=O [Myostatin_99_v215] ({CH2CO}-AAWY[NMeF]I[Sar][Phe(3-OCH2COOH)][Phe(4-COOH)]R[NMeF][X1][NMeA][NMeF]C-OH; thioether N-15)	8.72	6.69	–	–	106	–
CCCCCCC[C@@H]1NC(=O)[C@H](CC2CCCCC2)NC(=O)[C@H](CCCNC(=N)N)NC(=O)[C@H](Cc2ccc(C(=O)O)cc2)NC(=O)[C@H](CCCCNC(=O)N2CCN(CC(=O)O)CC2)NC(=O)CN(C)C(=O)[C@H]([C@@H](C)CC)NC(=O)[C@H](CC2CCCCC2)N(C)C(=O)[C@H](Cc2ccc(O)cc2)NC(=O)[C@H](Cc2c[nH]c3ccccc23)NC(=O)[C@@H](CCC(=O)O)NC(=O)[C@H](C)NC(=O)CSC[C@H](C(=O)N2CCN(CC(=O)O)CC2)NC(=O)[C@H](Cc2ccccc2)N(C)C(=O)[C@H](C)N(C)C1=O [Myostatin_99_v249] ({CH2CO}-A[dE]WY[NMeCha]I[Sar]K([CO-Piperazinyl(4-CH2COOH)])[Phe(4-COOH)]R[Cha][X1][NMeA][NMeF][dC]-{Piperazinyl(4-CH2COOH)}; thioether N-15)	9.30	6.92	–	–	237	–
CC[C@H](C)[C@@H]1NC(=O)[C@H](Cc2ccccc2)N(C)C(=O)[C@H](Cc2ccc(O)cc2)NC(=O)[C@H](Cc2c[nH]c3ccccc23)NC(=O)[C@H](C)NC(=O)[C@H](C)NC(=O)CSC[C@H](C(=O)O)NC(=O)[C@H](Cc2ccccc2)N(C)C(=O)[C@H](C)N(C)C(=O)[C@H](CC(C)C)NC(=O)[C@H](Cc2ccccc2)N(C)C(=O)[C@H](CCCNC(=N)N)NC(=O)[C@H](Cc2ccc(C(=O)O)cc2)NC(=O)[C@H](Cc2ccc(O)cc2)NC(=O)CN(C)C1=O [Myostatin_99_v172] ({CH2CO}-AAWY[NMeF]I[Sar]Y[Phe(4-COOH)]R[NMeF]L[NMeA][NMeF][dC]-OH; thioether N-15)	8.29	6.76	–	–	34	–

Further lines, with some results ahead:

pIC50 (Myostatin [1]; Method A: Myostatin 10 ng/mL)	pIC50 (GDF-11; Method A: GDF-11 10 ng/mL)	pIC50 (Myostatin [1]; Method B: Myostatin 1 ng/mL)	pIC50 (GDF-11; Method B: GDF-11 1 ng/mL)	SMILES	Selectivity (Myostatin [2]; Method A)	Selectivity (Myostatin [2]; Method B)
7.98	5.78	–	–	CC[C@H](C)[C@@H]1NC(=O)[C@H](Cc2ccccc2)N(C)C(=O)[C@H](Cc2ccc(O)cc2)NC(=O)[C@H](Cc2ccc(-c3ccccc3)cc2)NC(=O)[C@H](C)NC(=O)CN(CCCC(=O)O)C(=O)CSC[C@H](C(=O)O)NC(=O)[C@H](Cc2ccccc2)N(C)C(=O)[C@H](C)N(C)C(=O)[C@H](CC(C)C)NC(=O)[C@H](Cc2ccccc2)N(C)C(=O)[C@H](CCCNC(=N)N)NC(=O)[C@H](Cc2ccc(OCC(=O)O)cc2)NC(=O)[C@H](Cc2cccc(OCC(=O)O)c2)NC(=O)CN(C)C1=O [Myostatin_99_v86] ({CH2CO}-[Gly(N(CH2)3COOH)]A[Bip]Y[NMeF]I[Sar][Phe(3-OCH2COOH)]Y(Carboxymethyl)R[NMeF]L[NMeA][NMeF][dC]-OH; thioether N-15)	159	–
7.11	5.41	–	–	CC[C@H](C)[C@@H]1NC(=O)[C@H](Cc2ccccc2)N(C)C(=O)[C@H](Cc2ccc(O)cc2)NC(=O)[C@H](Cc2ccc(-c3ccncc3)cc2)NC(=O)CNC(=O)CN(CCCC(=O)O)C(=O)CSC[C@H](C(=O)O)NC(=O)[C@H](Cc2ccccc2)N(C)C(=O)[C@H](C)N(C)C(=O)[C@H](CC(C)C)NC(=O)[C@H](Cc2ccccc2)N(C)C(=O)[C@H](CCCNC(=N)N)NC(=O)[C@H](Cc2ccc(OCC(=O)O)cc2)NC(=O)[C@H](Cc2cccc(OCC(=O)O)c2)NC(=O)CN(C)C1=O [Myostatin_99_v92] ({CH2CO}-[Gly(N(CH2)3COOH)]G[Phe(4-(4-pyridyl))]Y[NMeF]I[Sar][Phe(3-OCH2COOH)]Y(Carboxymethyl)R[NMeF]L[NMeA][NMeF][dC]-OH; thioether N-15)	50	–
8.44	6.43	–	–	CC[C@H](C)[C@@H]1NC(=O)[C@H](Cc2ccccc2)N(C)C(=O)[C@H](Cc2ccc(O)cc2)NC(=O)[C@H](Cc2ccc(-c3ccccc3)cc2)NC(=O)[C@H](C)NC(=O)[C@H](C)NC(=O)CSC[C@H](C(=O)O)NC(=O)[C@H](Cc2ccccc2)N(C)C(=O)[C@H](C)N(C)C(=O)[C@H](CC(C)C)NC(=O)[C@H](Cc2ccccc2)N(C)C(=O)[C@H](CCCNC(=N)N)NC(=O)[C@H](Cc2ccc(OCC(=O)O)cc2)NC(=O)[C@H](Cc2cccc(OCC(=O)O)c2)NC(=O)CN(C)C1=O [Myostatin_99_v108] ({CH2CO}-AA[Bip]Y[NMeF]I[Sar][Phe(3-OCH2COOH)]Y(Carboxymethyl)R[NMeF]L[NMeA][NMeF][dC]-OH; thioether N-15)	104	–
